Results as given in US10519169B2, “3-(1H-pyrrolo[2,3-C]pyridin-2-yl)-1 H-pyrazolo[4,3-B]pyridines and therapeutic uses thereof” (Samumed, LLC, priority 2015, dated 2019).

What was measured:
Assay type in all cases: cell-based
[1] = tested on: Wnt activity (Sp5-Luc reporter, TCF/LEF binding sites) in SW480 colon carcinoma cells; assay: Wnt activity screening assay, Sp5-Luc reporter gene in SW480 cells; conditions: Homo sapiens, overnight incubation
Text: The screening assay for Wnt activity is described as follows. Reporter cell lines can be generated by stably transducing cancer cell lines (e.g., colon cancer) or primary cells (e.g., IEC-6 intestinal cells) with a lentiviral construct that includes a Wnt-responsive promoter driving expression of the firefly luciferase gene.
SW480 colon carcinoma cells were transduced with a lentiviral vector expressing luciferase with a human Sp5 promoter consisting of a sequence of eight TCF/LEF binding sites. SW480 cells stably expressing the Sp5-Luc reporter gene and a hygromycin resistance gene were selected by treatment with 150 μg/mL of hygromycin for 7 days. These stably transduced SW480 cells were expanded in cell culture and used for all further screening activities. Each compound was dissolved in DMSO as a 10 mM stock and used to prepare compound source plates. Serial dilution (1:3, 10-point dose-response curves starting from 10 μM) and compound transfer was performed using the ECHO 550 (Labcyte, Sunnyvale, Calif.) into 384-well white solid bottom assay plates (Greiner Bio-One) with appropriate DMSO backfill for a final DMSO concentration of 0.1%. For Sp5-Luc reporter gene assays, the cells were plated at 4,000 cells/well in 384-well plates with medium containing 1% fetal bovine serum and incubated overnight at 37° C. and 5% CO2. Following incubation, 20 μl of BrightGlo luminescence reagent (Promega) was added to each well of the 384-well assay plates. The plates were placed on an orbital shaker for 2 min and then luminescence was quantified using the Envision (Perkin Elmer) plate reader. Readings were normalized to DMSO only treated cells, and normalized activities were utilized for EC50 calculations using the dose-response log (inhibitor) vs. response-variable slope (four parameters) nonlinear regression feature available in GraphPad Prism 5.0 (or Dotmatics). For EC50 of >10 μM, the percent inhibition at 10 μM is provided.

SW480 colon cancer cells = assay: Cell viability assay (CellTiter-Blue), SW480 cells; conditions: Homo sapiens, 96 h, four days, CellTiter-Blue
Method: Representative compounds were screened using the following assay procedure to assess the effect on cell viability as described below.
Each compound was dissolved in DMSO as a 10 mM stock and used to prepare compound source plates. Serial dilution (1:3, 8-point dose-response curves from […]) and compound transfer was performed using the ECHO 550 (Labcyte, Sunnyvale, Calif.) into 96-well clear bottom, black-walled plates (Corning-Costar).
Approximately 2×10^3 SW480 colon cancer cells were seeded into each well and allowed to incubate in the presence or absence of compound for four days at 37° C./5% CO2. Eight replicates of DMSO-treated cells served as controls and cells treated with compound were performed in duplicate.
After incubation, 20 μL of CellTiter-Blue (Promega) was added to each well allowed to incubate for approximately 3 hours. This reagent was a buffered solution which contains resazurin, metabolically active cells were able to reduce rezarurin (blue) into resorufin (pink) which was highly fluorescent. This measured fluorescence was used as a readout for cell viability.
After incubation, the plates were read at Ex 560 nm Em 590 nm (Cytation 3, BioTek). Dose-response curves were generated and EC50 concentration values were calculated using non-linear regression curve fit in the GraphPad Prism (San Diego, Calif.) or Dotmatics' Studies Software (Bishops Stortford, UK). For EC50 of >10 μM, the percent inhibition at 10 μM is provided.

[2] = tested on: primary human fibroblasts derived from IPF patients (LL29 cells) treated with TGF-β1; assay: Inhibition of fibrotic process, αSMA staining in TGF-β1 treated LL29 fibroblasts; conditions: Fibroblast; for EC50: 96 h, TGF-β1 20 ng/mL, 4 days, % cells positive for αSMA
Text: Representative compounds were screened using primary human fibroblasts (derived from IPF patients) treated with TGF-β1 to determine their ability to inhibit the fibrotic process.
Primary human fibroblasts derived from IPF patients (LL29 cells) [^1Xiaoqiu Liu, et. al., “Fibrotic Lung Fibroblasts Show Blunted Inhibition by cAMP Due to Deficient cAMP Response Element-Binding Protein Phosphorylation”, Journal of Pharmacology and Experimental Therapeutics (2005), 315(2), 678-687; ^2Watts, K. L., et. al., “RhoA signaling modulates cyclin D1 expression in human lung fibroblasts; implications for idiopathic pulmonary fibrosis”, Respiratory Research (2006), 7(1), 88] were obtained from American Type Culture Collection (ATCC) and expanded in F12 medium supplemented with 15% Fetal Bovine Serum and Penicillin/Streptomycin.
Each compound was dissolved in DMSO as a 10 mM stock and used to prepare compound source plates. Serial dilution (1:2, 11-point dose-response curves from […] to […]) and compound transfer was performed using the ECHO 550 (Labcyte, Sunnyvale, Calif.) into 384-well clear bottom assay plates (Greiner Bio-One) with appropriate DMSO backfill for a final DMSO concentration of 0.1%. LL29 cells are plated at 1,500 cells/well in 80 μL/well F12 medium supplemented with 1% Fetal Bovine Serum. One hour after addition of the cells, TGF-β1 (Peprotech; 20 ng/mL) was added to the plates to induce fibrosis (ref. 1 and 2 above). Wells treated with TGF-β1 and containing DMSO were used as controls. Cells were incubated at 37° C. and 5% CO2 for 4 days. Following incubation for 4 days, SYTOX green nucleic acid stain (Life Technologies [Thermo Fisher Scientific]) was added to the wells at a final concentration of 1 μM and incubated at room temperature for 30 min. Cells were then fixed using 4% formaldehyde (Electron Microscopy Sciences), washed 3 times with PBS followed by blocking and permeabilization using 3% Bovine Serum Albumin (BSA; Sigma) and 0.3% Triton X-100 (Sigma) in PBS. Cells were then stained with antibody specific to α-smooth muscle actin (aSMA; Abcam) (ref. 1 and 2 above) in 3% Bovine Serum Albumin (BSA; Sigma) and 0.3% Triton X-100 (Sigma) in PBS, and incubated overnight at 4° C. Cells were then washed 3 times with PBS, followed by incubation with Alexa Flor-647 conjugated secondary antibody (Life Technologies [Thermo Fisher Scientific]) and DAPI at room temperature for 1 hour. Cells were then washed 3 times with PBS and plates were sealed for imaging. aSMA staining was imaged by excitation at 630 nm and emission at 665 nm and quantified using the Compartmental Analysis program on the CellInsight CX5 (Thermo Scientific). Dead or apoptotic cells were excluded from analysis based on positive SYTOX green staining. % of total cells positive for aSMA were counted in each well and normalized to the average of 11 wells treated with TGF-β1 on the same plate using Dotmatics' Studies Software. The normalized averages (fold change over untreated) of 3 replicate wells for each compound concentration were used to create dose-responses curves and EC50 values were calculated using non-linear regression curve fit in the Dotmatics' Studies Software. For EC50 of >10 μM, the percent inhibition at 10 μM is provided.

IL-6 = IL-6 inhibition in LPS-stimulated THP-1 cells (HTRF); conditions: Homo sapiens; for EC50: LPS 500 ng/mL, 22 hours, IL6 HTRF
Method: Human monocyte cell line (THP-1 cells; Catalog # TIB-202, ATCC, Manassas, Va.) were cultured in Roswell Park Memorial Institute (RPMI) 1640 Medium (Catalog #21870-100, Buffalo, N.Y.) with 1% L-glutamine, 1% HEPES, 1% Sodium Pyruvate, 2% Sodium Bicarbonate supplemented with 100 units/mL penicillin, 50 μg/mL streptomycin, 2-mercaptoethanol (0.05 mM) [basal medium] and 10% fetal bovine serum (Catalog #16140089, Life Technologies, Carlsbad, Calif.) at 37° C. and 5% CO2.
THP-1 cells were cultured in basal media with 1% FBS for 24 hours before the start of the assay. Each compound was dissolved in DMSO as a 10 mM stock and used to prepare compound source plates. Serial dilution (1:3, 10-point dose-response curves starting from 10 μM) and compound transfer was performed using the ECHO 550 (Labcyte, Sunnyvale, Calif.) into 384-well white low volume assay plates (Greiner Bio-One) with appropriate DMSO backfill for a final DMSO concentration of 0.1%. THP-1 cells were plated at 5000 cells/well in the 384-well plates and incubated at 37° C. for 2 h. 500 ng/mL of LPS was added after 2 hours and cells were incubated for another 22 hours at 37° C. Plates were spun in a centrifuge for 1 minute at […] and a mixture of anti-IL6 XL665, and anti-IL6 Cryptate diluted in reconstitution buffer (Cisbio Inc.) was added to each well. Following incubation for 3 hrs at room temperature, Homogeneous Time-Resolved Fluorescence (HTRF) was measured using the Envision (Perkin Elmer) at 665 nm and […]. The ratio of fluorescence at 665 nm to 620 nm was used as a readout for IL6 quantification. All samples were processed in duplicate. Readings were normalized to DMSO treated cells and normalized activities were utilized for EC50 calculations using the dose-response log (inhibitor) vs. response-variable slope (four parameters) nonlinear regression feature available in GraphPad Prism 5.0 (or Dotmatics). For EC50 of >10 μM, the percent inhibition at […] is provided.

| Structure (SMILES) | EC50 [1] | EC50 (SW480 colon cancer cells) | EC50 [2] | EC50 (IL-6) | inhibition at 10 µM ([2]; given for EC50 >10 μM, TGF-β1, αSMA, 10 μM, read-out: percent inhibition at 10 μM) | inhibition at 10 µM (IL-6; given for EC50 >10 μM, LPS, IL6, at 10 M [sic], read-out: percent inhibition at 10 M) |
| --- | --- | --- | --- | --- | --- | --- |
| Cc1ccncc1-c1ccc2[nH]nc(-c3cc4c(-c5cccs5)cncc4[nH]3)c2n1 [Compound 341, 5-(4-Methylpyridin-3-yl)-3-(4-(thiophen-2-yl)-1H-pyrrolo[2,3-c]pyridin-2-yl)-1H-pyrazolo[4,3-b]pyridine] | 4.07 µM | 4.25 µM | 0.521 µM | 0.118 µM |  |  |
| c1csc(-c2cncc3[nH]c(-c4n[nH]c5ccc(-c6ccncc6)nc45)cc23)c1 [Compound 354, 5-(Pyridin-4-yl)-3-(4-(thiophen-2-yl)-1H-pyrrolo[2,3-c]pyridin-2-yl)-1H-pyrazolo[4,3-b]pyridine] | 2.23 µM | 1.08 µM | 1.18 µM | 5.8 µM |  |  |
| CS(=O)(=O)NCc1cc(F)cc(-c2cncc3[nH]c(-c4n[nH]c5ccc(-c6cncc(CN7CCC(F)(F)C7)c6)nc45)cc23)c1 [Compound 502, N-(3-(2-(5-(5-((3,3-Difluoropyrrolidin-1-yl)methyl)pyridin-3-yl)-1H-pyrazolo[4,3-b]pyridin-3-yl)-1H-pyrrolo[2,3-c]pyridin-4-yl)-5-fluorobenzyl)methanesulfonamide] | 2.11 µM | 3.09 µM | > 10 µM | 1.76 µM | 25.4% |  |
| Fc1cccc(-c2cncc3[nH]c(-c4n[nH]c5ccc(-c6cncc(OCc7ccccc7)c6)nc45)cc23)c1 [Compound 518, 5-(5-(Benzyloxy)pyridin-3-yl)-3-(4-(3-fluorophenyl)-1H-pyrrolo[2,3-c]pyridin-2-yl)-1H-pyrazolo[4,3-b]pyridine] | 1.28 µM | 1.12 µM | 1.2 µM | > 10 µM |  | 35.5% |
| c1ncc(-c2ccc3[nH]nc(-c4cc5c(N6CCCCC6)cncc5[nH]4)c3n2)cc1OC1CCCCC1 [Compound 607, 5-(5-(Cyclohexyloxy)pyridin-3-yl)-3-(4-(piperidin-1-yl)-1H-pyrrolo[2,3-c]pyridin-2-yl)-1H-pyrazolo[4,3-b]pyridine] | 3.35 µM | 0.498 µM | 0.199 µM | 2.36 µM |  |  |
| CN(C)CCOc1cncc(-c2ccc3[nH]nc(-c4cc5ccncc5[nH]4)c3n2)c1 [Compound 659, 2-((5-(3-(1H-Pyrrolo[2,3-c]pyridin-2-yl)-1H-pyrazolo[4,3-b]pyridin-5-yl)pyridin-3-yl)oxy)-N,N-dimethylethan-1-amine] | 3.35 µM | 1.48 µM | 4.13 µM | 1.49 µM |  |  |
